Laboratory results taken from patent US12291529B2, “Heterocyclic GLP-1 agonists” (Gasherbrum Bio, Inc., priority 2023, dated 2025).

Molecular target: GLP-1 Receptor (Homo sapiens, UniProt P43220)
Assay: GLP-1R agonist cAMP stimulation assay (HEK293/GLP1R/CRE-LUC cells, Cisbio cAMP dynamic 2 kit)
Assay type: cell-based
Settings: Table 3, HEK293/GLP1R/CRE-LUC cells, 30 min
Protocol: Activation of GLP-1 receptor is known to stimulate cyclic AMP (cAMP) production in cells which indicates primary coupling to the G as subunit of the G protein heterotrimeric complex.
To optimize functional activity directed toward G as coupling, a HEK293/CRE-Luc cell line developed by HDB stably expressing the GLP-1 Receptor was used. 200× concentration of compound working solutions were prepared (Agilent Technologies Bravo) with ½ log serial dilution in 384-well Echo LDV plate (Labcyte, CatOLP-0200). 50 nL/well 200× concentration of compound working solutions were moved to 384-well white low volume plate (Greiner, Cat4784075) using Labcyte ECH0550.1×10^5 cells/mL HEK293/GLP1R/CRE-LUC (HD Biosciences) cell suspensions prepared with assay buffer (DPBS containing 0.5 mM IBMX (Sigma, Cat15879) and 0.10 BSA (GENVIEW, Cat4FA016-100g)), 10 uL cell suspensions were added to each well of previous generated assay plate which already contains 50 n^1 compound at 200 xconcentration using ThermioFisher Multidrop Combi (1000 cells/well). Seal the plate and incubate at 37 with […] for 30 m.
After incubation the cAMP assay signal was generated using cAMP dynamic 2 Kit (Cisbio). 5 μL cAMP-d2 working solution was added to each well, followed with 5 L Anti-cAMP antibody-cryptate working solution added to each well using ThermoFisher Multidrop Combi. Incubate at room temperature for 1 hour protected from light. Read the fluorescence at 665 and 615 nm with Reader PerkinElmer EnVision. % oActivity=100%×(mean RLU of test sample−mean RLU of vehicle control)/(mean RLU of MAX control−mean RLU of vehicle control)

Sequence of GLP-1 Receptor (P43220 24-463, species assumed): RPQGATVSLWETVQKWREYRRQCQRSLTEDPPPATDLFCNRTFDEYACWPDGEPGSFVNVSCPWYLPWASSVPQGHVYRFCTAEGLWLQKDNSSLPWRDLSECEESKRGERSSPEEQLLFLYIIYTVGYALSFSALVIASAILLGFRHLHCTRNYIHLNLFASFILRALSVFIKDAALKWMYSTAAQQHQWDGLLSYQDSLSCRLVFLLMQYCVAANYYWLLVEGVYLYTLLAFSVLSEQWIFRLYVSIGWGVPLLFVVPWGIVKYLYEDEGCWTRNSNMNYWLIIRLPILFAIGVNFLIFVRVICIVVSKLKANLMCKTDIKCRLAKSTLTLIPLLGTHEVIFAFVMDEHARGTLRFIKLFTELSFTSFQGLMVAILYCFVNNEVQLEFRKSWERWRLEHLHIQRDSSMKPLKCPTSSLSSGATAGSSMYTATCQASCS

EC50 [pM] | SMILES
10 | Cc1cc(-n2nc3c(c2-n2ccn(-c4cc5c(cc4F)S(C)(=O)=NC5)c2=O)[C@H](C)N(C(=O)c2cc4cc([C@H]5CCOC(C)(C)C5)ccc4n2[C@@]2(c4noc(=O)[nH]4)C[C@@H]2C)CC3)cc(C)c1F (single isomer, unassigned) [Compound 199]
10 | Cc1cc(-n2nc3c(c2-n2ccn(-c4cc5c(cc4F)S(C)(=O)=NC5)c2=O)[C@H](C)N(C(=O)c2cc4cc([C@H]5CCOC(C)(C)C5)ccc4n2[C@@]2(c4noc(=O)[nH]4)C[C@@H]2C)CC3)cc(C)c1F (single isomer, unassigned) [Compound 200]
11 | Cc1cc(-n2nc3c(c2-n2ccn(-c4ccc5c(c4Cl)CN=S5(C)=O)c2=O)[C@H](C)N(C(=O)c2cc4cc([C@H]5CCOC(C)(C)C5)ccc4n2[C@@]2(c4noc(=O)[nH]4)C[C@@H]2C)CC3)cc(C)c1F (single isomer, unassigned) [Compound 201]
18 | Cc1cc(-n2nc3c(c2-n2ccn(-c4ccc5c(c4Cl)CN=S5(C)=O)c2=O)[C@H](C)N(C(=O)c2cc4cc([C@H]5CCOC(C)(C)C5)ccc4n2[C@@]2(c4noc(=O)[nH]4)C[C@@H]2C)CC3)cc(C)c1F (single isomer, unassigned) [Compound 202]
32 | CN=S(=O)(c1ccc(-n2ccn(-c3c4c(nn3-c3cc(C)c(Cl)c(C)c3)CCN(C(=O)c3cc5cc([C@H]6CCOC(C)(C)C6)ccc5n3[C@@]3(c5noc(=O)[nH]5)C[C@@H]3C)[C@H]4C)c2=O)c(F)c1)C1CC1 (single isomer, unassigned) [Compound 203]
39 | CN=S(=O)(c1ccc(-n2ccn(-c3c4c(nn3-c3cc(C)c(F)c(C)c3)CCN(C(=O)c3cc5cc([C@H]6CCOC(C)(C)C6)ccc5n3[C@@]3(c5noc(=O)[nH]5)C[C@@H]3C)[C@H]4C)c2=O)c(Cl)c1)C1CC1 (single isomer, unassigned) [Compound 204]
72 | CN=S(=O)(c1ccc(-n2ccn(-c3c4c(nn3-c3cc(C)c(F)c(C)c3)CCN(C(=O)c3cc5cc([C@H]6CCOC(C)(C)C6)ccc5n3[C@@]3(c5noc(=O)[nH]5)C[C@@H]3C)[C@H]4C)c2=O)c(Cl)c1)C1CC1 (single isomer, unassigned) [Compound 205]
20 | CC1=Cc2cc(-n3ccn(-c4c5c(nn4-c4cc(C)c(F)c(C)c4)CCN(C(=O)c4cc6cc([C@H]7CCOC(C)(C)C7)ccc6n4[C@@]4(c6noc(=O)[nH]6)C[C@@H]4C)[C@H]5C)c3=O)ccc2S(C)(=O)=N1 (single isomer, unassigned) [Compound 206]
20 | CC1=Cc2cc(-n3ccn(-c4c5c(nn4-c4cc(C)c(F)c(C)c4)CCN(C(=O)c4cc6cc([C@H]7CCOC(C)(C)C7)ccc6n4[C@@]4(c6noc(=O)[nH]6)C[C@@H]4C)[C@H]5C)c3=O)ccc2S(C)(=O)=N1 (single isomer, unassigned) [Compound 207]
110 | CCN=S(=O)(c1ccc(-n2ccn(-c3c4c(nn3-c3cc(C)c(F)c(C)c3)CCN(C(=O)c3cc5cc([C@H]6CCOC(C)(C)C6)ccc5n3[C@@]3(c5noc(=O)[nH]5)C[C@@H]3C)[C@H]4C)c2=O)c(F)c1)C1CC1 (single isomer, unassigned) [Compound 208]
220 | Cc1cc(-n2nc3c(c2-n2ccn(-c4ccc(S(=O)(=NC5CC5)C5CC5)cc4F)c2=O)[C@H](C)N(C(=O)c2cc4cc([C@H]5CCOC(C)(C)C5)ccc4n2[C@@]2(c4noc(=O)[nH]4)C[C@@H]2C)CC3)cc(C)c1F (single isomer, unassigned) [Compound 209]
67 | CC1=Cc2c(ccc(-n3ccn(-c4c5c(nn4-c4cc(C)c(F)c(C)c4)CCN(C(=O)c4cc6cc([C@H]7CCOC(C)(C)C7)ccc6n4[C@@]4(c6noc(=O)[nH]6)C[C@@H]4C)[C@H]5C)c3=O)c2F)S(=O)(C2CC2)=N1 (single isomer, unassigned) [Compound 210]
41 | CC1=Cc2c(ccc(-n3ccn(-c4c5c(nn4-c4cc(C)c(F)c(C)c4)CCN(C(=O)c4cc6cc([C@H]7CCOC(C)(C)C7)ccc6n4[C@@]4(c6noc(=O)[nH]6)C[C@@H]4C)[C@H]5C)c3=O)c2F)S(=O)(C2CC2)=N1 (single isomer, unassigned) [Compound 211]
38 | Cc1cc(-n2nc3c(c2-n2ccn(-c4ccc5c(c4)CCCN=S5(=O)C4CC4)c2=O)[C@H](C)N(C(=O)c2cc4cc([C@H]5CCOC(C)(C)C5)ccc4n2[C@@]2(c4noc(=O)[nH]4)C[C@@H]2C)CC3)cc(C)c1F (single isomer, unassigned) [Compound 212]
120 | Cc1cc(-n2nc3c(c2-n2ccn(-c4ccc5c(c4)CCCN=S5(=O)C4CC4)c2=O)[C@H](C)N(C(=O)c2cc4cc([C@H]5CCOC(C)(C)C5)ccc4n2[C@@]2(c4noc(=O)[nH]4)C[C@@H]2C)CC3)cc(C)c1F (single isomer, unassigned) [Compound 213]
74 | CN=S(=O)(c1ccc(-n2ccn(-c3c4c(nn3-c3cc(C)c(F)c(C)c3)CCN(C(=O)c3cc5cc([C@H]6CCOC(C)(C)C6)ccc5n3[C@@]3(c5noc(=O)[nH]5)C[C@@H]3C)[C@H]4C)c2=O)c(F)c1Cl)C1CC1 (single isomer, unassigned) [Compound 215]
200 | CN=S(=O)(c1ccc(-n2ccn(-c3c4c(nn3-c3ccc(F)c(C5CC5)c3)CCN(C(=O)c3cc5cc([C@H]6CCOC(C)(C)C6)ccc5n3[C@@]3(c5noc(=O)[nH]5)C[C@@H]3C)[C@H]4C)c2=O)c(F)c1C)C1CC1 (single isomer, unassigned) [Compound 217]
193 | CN=S(=O)(c1ccc(-n2ccn(-c3c4c(nn3-c3cc(C)c(F)c(C)c3)CCN(C(=O)c3cc5cc([C@H]6CCOC(C)(C)C6)ccc5n3[C@@]3(c5noc(=O)[nH]5)C[C@@H]3C)[C@H]4C)c2=O)c(F)c1C(C)C)C1CC1 (single isomer, unassigned) [Compound 219]
134 | CN=S(=O)(c1ccc(-n2ccn(-c3c4c(nn3-c3cc(C)c(F)c(C)c3)CCN(C(=O)c3cc5cc([C@H]6CCOC(C)(C)C6)ccc5n3[C@@]3(c5noc(=O)[nH]5)C[C@@H]3C)[C@H]4C)c2=O)c(F)c1C(C)C)C1CC1 (single isomer, unassigned) [Compound 220]
84 | CN=S(=O)(c1ccc(-n2ccn(-c3c4c(nn3-c3cc(C)c(F)c(C)c3)CCN(C(=O)c3cc5cc(C6CCOCC6)ccc5n3[C@@]3(c5noc(=O)[nH]5)C[C@@H]3C)[C@H]4C)c2=O)c(F)c1)C1CC1 (single isomer, unassigned) [Compound 222]
340 | Cc1cc(-n2nc3c(c2-n2ccn(-c4ccc5c(c4)CCS(C)(=O)=N5)c2=O)[C@H](C)N(C(=O)c2cc4cc([C@H]5CCOC(C)(C)C5)ccc4n2[C@@]2(c4noc(=O)[nH]4)C[C@@H]2C)CC3)cc(C)c1F (single isomer, unassigned) [Compound 228]
42 | Cc1cc(-n2nc3c(c2-n2ccn(-c4ccc5c(c4)CCS(C)(=O)=N5)c2=O)[C@H](C)N(C(=O)c2cc4cc([C@H]5CCOC(C)(C)C5)ccc4n2[C@@]2(c4noc(=O)[nH]4)C[C@@H]2C)CC3)cc(C)c1F (single isomer, unassigned) [Compound 229]
48 | Cc1cc(-n2nc3c(c2-n2ccn(-c4ccc5c(c4)C=CS(C)(=O)=N5)c2=O)[C@H](C)N(C(=O)c2cc4cc([C@H]5CCOC(C)(C)C5)ccc4n2[C@@]2(c4noc(=O)[nH]4)C[C@@H]2C)CC3)cc(C)c1F (single isomer, unassigned) [Compound 230]
14 | Cc1cc(-n2nc3c(c2-n2ccn(-c4ccc5c(c4)C=CS(C)(=O)=N5)c2=O)[C@H](C)N(C(=O)c2cc4cc([C@H]5CCOC(C)(C)C5)ccc4n2[C@@]2(c4noc(=O)[nH]4)C[C@@H]2C)CC3)cc(C)c1F (single isomer, unassigned) [Compound 231]
37 | CN=S1(=O)CCC(Oc2ccc(-n3ccn(-c4c5c(nn4-c4cc(C)c(F)c(C)c4)CCN(C(=O)c4cc6cc(C7CCOCC7)ccc6n4[C@@]4(c6noc(=O)[nH]6)C[C@@H]4C)[C@H]5C)c3=O)c(F)c2C)CC1 (single isomer, unassigned) [Compound 232]
28 | CN=S1(=O)CCC(Oc2ccc(-n3ccn(-c4c5c(nn4-c4cc(C)c(F)c(C)c4)CCN(C(=O)c4cc6cc(C7CCOCC7)ccc6n4[C@@]4(c6noc(=O)[nH]6)C[C@@H]4C)[C@H]5C)c3=O)c(F)c2C)CC1 (single isomer, unassigned) [Compound 233]
58 | CN=S1(=O)CCC(Oc2ccc(-n3ccn(-c4c5c(nn4-c4cc(C)c(F)c(C)c4)CCN(C(=O)c4cc6cc(C7CCOCC7)ccc6n4[C@@]4(c6noc(=O)[nH]6)C[C@@H]4C)[C@H]5C)c3=O)cc2C(F)F)CC1 (single isomer, unassigned) [Compound 234]
57 | CN=S1(=O)CCC(Oc2ccc(-n3ccn(-c4c5c(nn4-c4cc(C)c(F)c(C)c4)CCN(C(=O)c4cc6cc(C7CCOCC7)ccc6n4[C@@]4(c6noc(=O)[nH]6)C[C@@H]4C)[C@H]5C)c3=O)cc2C(F)F)CC1 (single isomer, unassigned) [Compound 235]
53 | CN=S1(=O)CCC(Oc2ccc(-n3ccn(-c4c5c(nn4-c4cc(C)c(F)c(C)c4)CCN(C(=O)c4cc6cc([C@H]7CCOC(C)(C)C7)ccc6n4[C@@]4(c6noc(=O)[nH]6)C[C@@H]4C)[C@H]5C)c3=O)cc2C2CC2)CC1 (single isomer, unassigned) [Compound 236]
